According to patent publication US20150360047A1, “Cosmetic Biophotonic Compositions” (KLOX TECHNOLOGIES INC., priority 2012, published 2015):

Assay: Absorption/emission spectra and photobleaching of chromophores and chromophore combinations
Format: physicochemical
Method: The photodynamic properties of (i) Fluorescein sodium salt at about 0.09 mg/mL, (ii) Eosin Y at about 0.305 mg/mL, and (iii) a mixture of Fluorescein sodium salt at about 0.09 mg/mL and Eosin Y at about 0.305 mg/mL, all in a gel (12% carbamide) were evaluated. A flexstation 384 II spectrophotometer was used to measure emitted fluorescence with the following parameters: mode fluorescence, excitation 460 nm, emission spectra 465-750 nm. The absorbance was read using a synergy HT microplate reader: mode absorbance; spectra between 300-650 nm. The absorption and emission spectra are shown in FIGS. 8A and 8B which indicate an energy transfer between the chromophores in the combination. It is to be reasonably inferred that this energy transfer can also occur in biophotonic compositions of the present disclosure. […]
The photodynamic properties of (i) Fluorescein sodium salt at 0.18 mg/mL final concentration, (ii) Eosin Y at about 0.305 mg/mL, and (iii) a mixture of Fluorescein sodium salt at about 0.18 mg/mL and Eosin Y at about 0.305 mg/mL in an aqueous solution were evaluated. A flexstation 384 II spectrophotometer was used to measure emitted fluorescence with the following parameters: mode fluorescence, excitation 460 nm, emission spectra 465-750 nm. The absorbance was read using a synergy HT microplate reader: mode absorbance; spectra between 300-650 nm. […]

Photobleaching during illumination (with Fluorescein in aqueous solution, Example 4): Photobleaching of Eosin Y was observed
Photobleaching during illumination (with Fluorescein in gel (12% carbamide), Example 3): Photobleaching of Eosin Y was observed
SMILES: O=C([O-])c1ccccc1-c1c2cc(Br)c(=O)c(Br)c-2oc2c(Br)c([O-])c(Br)cc12.[Na+].[Na+] [Eosin Y]
